One test deals with T1, human VAP-1 (SSAO) (Homo sapiens, UniProt Q16853).
T1 construct: made in house
T1 sequence (Q16853 29-763 limits assumed): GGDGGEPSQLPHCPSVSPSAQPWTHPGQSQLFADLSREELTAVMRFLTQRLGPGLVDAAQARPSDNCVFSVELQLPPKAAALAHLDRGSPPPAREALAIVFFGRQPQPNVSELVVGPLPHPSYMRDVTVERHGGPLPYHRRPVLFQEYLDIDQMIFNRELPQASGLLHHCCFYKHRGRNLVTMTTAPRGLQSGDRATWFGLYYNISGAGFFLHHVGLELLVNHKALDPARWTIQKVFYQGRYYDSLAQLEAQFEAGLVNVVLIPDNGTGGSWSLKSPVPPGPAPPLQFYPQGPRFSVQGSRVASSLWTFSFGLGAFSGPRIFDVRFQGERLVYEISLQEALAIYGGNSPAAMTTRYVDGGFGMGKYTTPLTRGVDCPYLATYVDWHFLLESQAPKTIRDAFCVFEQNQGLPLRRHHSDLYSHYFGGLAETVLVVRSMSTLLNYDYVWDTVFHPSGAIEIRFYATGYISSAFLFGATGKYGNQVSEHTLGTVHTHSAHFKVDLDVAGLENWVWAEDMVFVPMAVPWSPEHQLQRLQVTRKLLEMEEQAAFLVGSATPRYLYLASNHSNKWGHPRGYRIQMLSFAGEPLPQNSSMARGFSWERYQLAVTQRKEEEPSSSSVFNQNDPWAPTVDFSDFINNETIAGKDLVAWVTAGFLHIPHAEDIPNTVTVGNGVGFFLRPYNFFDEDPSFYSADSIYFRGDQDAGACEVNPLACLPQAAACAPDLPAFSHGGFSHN
As to the kind of experiment: VAP-1 Inhibition Assay (benzylamine substrate, HRP-coupled hydrogen peroxide or 14C benzaldehyde detection). Type of test: biochemical. The following applies: purified recombinant human VAP-1 (SSAO), room temperature. As for the experimental part: This assay is performed at room temperature with purified recombinantly expressed human VAP-1 (SSAO). Enzyme was prepared essentially as described in Ohman et al. (Protein Expression and Purification 46 (2006) 321-331). The enzyme activity is assayed with benzylamine as substrate by measuring either benzaldehyde production, using 14C-labeled substrate, or by utilizing the production of hydrogen peroxide in a horseradish peroxidise (HRP) coupled reaction. Briefly, test compounds are dissolved in dimethyl sulfoxide (DMSO) to a concentration of 10 mM. […]
Hydrogen peroxide detection: In a horseradish peroxidise (HRP) coupled reaction, hydrogen peroxide oxidation of 10-acetyl-3,7-dihydroxyphenoxazine produces resorufin, which is a highly fluorescent compound (Zhout and Panchuk-Voloshina. Analytical Biochemistry 253 (1997) 169-174; Amplex® Red Hydrogen Peroxide/peroxidise Assay kit, Invitrogen A22188). […] Benzylarnine concentration is fixed at a concentration corresponding to the Michaelis constant, determined using standard procedures. Fluorescence intensity is then measured at several time points during 1-2 hours, exciting at 544 nm and reading the emission at 590 nm. […] The inhibition is measured as % decrease of the signal compared to a control without inhibitor (only diluted DMSO). […]

The test system of test [1] is adjuvant-induced arthritis. Put plainly: Adjuvant-induced arthritis model, Randall Selitto assay (mechanical hyperalgesia). Type of test: in vivo, rat. Particulars: Lewis rats, dosed day 0 to day 28: LJP1207 30 mg/kg po qd, MTX 0.25 mg/kg ip 3 times per week; assessed day 7, 14, 18, 21, 25, 28; FIG. 2. The source says: Rats injected into the hindpaw with a mixture of Mycobacterium butirricum emulsified in light mineral oil develop a severe polyarthritis which shares some features in common with human rheumatoid arthritis (RA), such as swelling of the extremities, cartilage degradation, loss of joint function and lymphocyte infiltration into diseased joints. This model was originally described more than 60 years ago (Pearson et al., Arthritis and Rheumatology. 1959. 2(5), 440-459) and is still the most widely used assay to identify chemical agents having a potential therapeutic efficacy in RA. […] Furthermore, this is a well-established model for inflammatory pain, especially longer-term (i.e. chronic) inflammatory pain.
Male Lewis rats (220-230 g) were housed in propylene cages with food and water ad libitum. The light cycle was automatically controlled and the room temperature thermostatically regulated to 21±1° C. Prior to the start of the experiment animals were housed in these conditions for 6-8 days.
Rats were anaesthetized before induction of CFA and then were treated orally starting from day 0 to day 28 with LJP1207 (30 mg/kg po qd) or methotrexate (MTX, 0.25 mg/kg ip 3 times per week). Control rats received the vehicle e.g. PBS starting from day 0. […] The development of arthritis was assessed at day 7, 14, 18, 21, 25 and 28. […]

In a further test the target is T2, human SSAO (Homo sapiens, UniProt Q16853).
T2 sequence (Q16853 1-763): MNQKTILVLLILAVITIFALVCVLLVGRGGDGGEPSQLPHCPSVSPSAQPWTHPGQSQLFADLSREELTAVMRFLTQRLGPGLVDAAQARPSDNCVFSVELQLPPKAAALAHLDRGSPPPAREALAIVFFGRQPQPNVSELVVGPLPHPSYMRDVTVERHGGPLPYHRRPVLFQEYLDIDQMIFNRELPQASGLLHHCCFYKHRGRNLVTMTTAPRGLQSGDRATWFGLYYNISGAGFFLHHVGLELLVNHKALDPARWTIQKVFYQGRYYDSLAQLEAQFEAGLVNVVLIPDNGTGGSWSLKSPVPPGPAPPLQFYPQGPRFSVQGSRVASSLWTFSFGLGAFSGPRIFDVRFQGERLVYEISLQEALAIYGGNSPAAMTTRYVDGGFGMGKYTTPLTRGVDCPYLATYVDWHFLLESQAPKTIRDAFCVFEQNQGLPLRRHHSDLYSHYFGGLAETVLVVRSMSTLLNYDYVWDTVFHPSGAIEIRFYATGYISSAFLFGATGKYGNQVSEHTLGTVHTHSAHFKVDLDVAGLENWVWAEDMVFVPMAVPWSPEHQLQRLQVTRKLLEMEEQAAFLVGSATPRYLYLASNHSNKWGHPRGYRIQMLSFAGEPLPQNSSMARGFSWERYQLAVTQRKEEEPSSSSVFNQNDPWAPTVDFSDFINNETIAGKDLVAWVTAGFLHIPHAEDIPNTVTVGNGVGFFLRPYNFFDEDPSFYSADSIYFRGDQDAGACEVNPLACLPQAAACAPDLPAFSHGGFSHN
The following applies: Salter-Cid et al., J Pharmacol Exp Ther. 2005; read-out: human SSAO, IC(50); cited from earlier work.

Consider three molecules from US20200397764A1, “VAP-1 INHIBITORS FOR TREATING PAIN” (BENEVOLENTAI CAMBRIDGE LIMITED, priority 2015, published 2020).

The structures appear in SMILES notation.

As to `CC(C)[C@H]1c2[nH]cnc2CCN1C(=O)O[C@H]1CCOC1` [Compound 1, (3S)-Tetrahydrofuran-3-yl (4S)-4-isopropyl-1,4,6,7-tetrahydro-5H-Imidazo[4,5-c]pyridine-5-carboxylate], the IC50 at human VAP-1 (SSAO) was 37 nM.

Consider `C=C(CNN)c1ccccc1.Cl` [LJP1207, N′-(2-phenyl-allyl)-hydrazine hydrochloride], for which the “inhibition of paw withdrawal (nociceptive threshold, Randall Selitto)” value in test [1] is “significant inhibition at day 21, 25 and 28”. The IC50 on human SSAO is 17 nM.

In the case of `CN(Cc1cnc2nc(N)nc(N)c2n1)c1ccc(C(=O)N[C@@H](CCC(=O)O)C(=O)O)cc1` [MTX, methotrexate], in test [1], the “inhibition of paw withdrawal (nociceptive threshold, Randall Selitto)” value is on record as “significant inhibition starting at day 18 up to day 28”.
